Laboratory results from US20190169134A1, “NOVEL CLASS OF QUINOLONE HETEROCYCLIC AROMATIC MOLECULES FOR CANCER TREATMENT” (RenoTarget Therapeutics, Inc., priority 2016, published 2019).

Tests used:
Assay type in all cases: cell-based, human
HCC827 P cells [1] = experiment: Combination analysis of cell growth inhibition (SRB, CalcuSyn)
Protocol: (§1) As described in Example 2.1. Two cell lines, HCC827-P and HCC827-TR (Tarceva-resistant HCC727 cells-an EGFRi resistant cell line with MET amplification) (Wang, Pursell et al. 2013) were used in the combination study. Exponentially growing HC[…] and HCC827-TR cells were seeded into 96-wells dishes at density of 3,000 cells per well. Twenty-four hours later, the cells were exposed concurrently to serial dilution of Reno647 or Carboplatin or Camptothecin alone or in combination at a ratio of 1:50 with Carboplatin or at ratio 1:1 with Camptothecin for 3 days. Reno647 were concurrently and sequentially with paclitaxel (Taxol) at ratio of 200:1 for 6 days. For sequential exposure, the cells were treated with Reno647 for 3 days, after removal of the drug containing medium, the cells were treated with Taxol for additional 3 days, or the cells were treated by Taxol first followed by the treatment with Reno 647. After incubation for 6 days, the cell growth was measured by SRB as described previously in Example 2.1 section, and the percentages of inhibition (1-T/C) % were calculated, and data were analyzed by a PC program, CalcuSyn, Biosoft (edited by T.-C. Chou, Memorial Sloan-Kettering Cancer Center, New York, and M. P. Hayball, at Cambridge, UK, 1996). The computer-calculated combination index (CI) was used to judge the outcomes of a combination: […] It has long been accepted that chemotherapy provided some benefit for patients with non-small-cell lung cancer (NSCLC) in terms of quality of life and symptomatology as well as modest improvements in survival. […] Cell growth was determined by SRB as described above. […] Cell growth was determined by SRB as described above. […] (FIG. 5 C&D, CIs were well below 1 at effective concentration), particularly at higher concentration where Reno647 achieves its effective inhibition on […]. […] However, induction of EGFR activation mediated by Taxol may compromise activity of EGFR inhibitors. To examine our hypothesis, Taxol was combined with Reno647 in three different sequential exposures: • Combination 1: exposure of HC[…] or TR cells to Reno647+Taxol simultaneously for 6 days. • Combination 2: exposure of the cells to Reno647 first for 3 days followed by treatment with Taxol for an additional 3 days, or • Combination 3: exposure of the cells to Taxol first for 3 days followed by treatment with Reno647 for an additional 3 days. Exposure of the cells to either Reno647 or Taxol served as controls. After exposure, cell growth was determined by SRB and analyzed as described in above section.

HCC827 TR cells = experiment: as above
Protocol: as §1

HCC827 P cells [2] = experiment: Western blot of EGFR downstream signaling; conditions: 24 hrs
Protocol: The cells were washed with PBS, harvested and cellular proteins were extracted. […] Protein or phosphor-protein levels of pEGFRTyr1068, pEGFRTry845, pAktSer473, pStat3Tyr705, MEK1/2, pMEK1/2, p27, and pp70 S6 kinase 2 were determined by Western blot using specific antibodies. β-actin was used as loading control.
HCC827 P or other indicated cells at exponential growth phase were treated with indicated compounds for 24 hrs. The cells were washed with PBS, harvested and cellular proteins were extracted.

HCC827-P = experiment: qRT-PCR expression of Caspase 3, Caspase 9 and p21; conditions: 24 h
Protocol: FIG. 10 depicts the effect of Reno647 on expressions of Caspase 3, Caspase 9 and p21 in HCC827-P and on Box, Bcl2, p53 and p21 in HCC827-OR16 cells. […] Total cellular RNA was extracted and cDNA was prepared followed by qRT-PCR using specific probes as described in the section of Materials and Methods. Tgene ΔCt value was normalized for GAPDH by calculating ΔCt=Ctgene−CtGAPDH per sample.
HCC827 P or other indicated cells at exponential growth phase were treated with indicated concentrations of compounds for 24 hours. Total cellular RNA was prepared from lysed tumor cells using an RNA Purification kit (ThermoFisher Scientific). The first-strand of cDNA was synthesized using a High Capacity cDNA reverse transcription kit (ThermoFisher Scientific) in PTC-100 Peltier Thermal Cycler PCR. The resultant cDNA (0.5-1 μL) was used in a 10 μl reaction by using Taqman Universal PCR Master Mix (ThermoFisher Scientific). The pre-designed primers and probe were purchased from Life Technologies and used for qPCR. Human GAPDH was used as an internal control. qPCR was performed using Applied Biosystems StepOne and StepOnePlus Real-Time PCR Systems according manufacturer's instructions. An initial PCR denaturation step was performed at 95° C. for 20 seconds. The general cycling stage for qPCR were as follows: denaturation at 95° C. for 1 second, annealing and extension at 60° C. for 20 seconds, repeat for 40 cycles. Tgene ΔCt value was normalized for GAPDH by calculating ΔCt=Ctgene−CtGAPDH per sample.

[3] = HCC827P, ratio 200:1, 3 days + 3 days
[4] = HCC827TR, ratio 200:1, 3 days + 3 days

## C#Cc1cccc(Nc2ncnc3cc(OCCOC)c(NC(=O)c4ccc(F)c([N+](=O)[O-])c4)cc23)c1 [Reno647, 4-Fluoro-N-[4-(3-ethynyl-phenylamino)-7-(2-methoxy-ethoxy)-quinazolin-6-yl]-3-nitro-benzamide]
HCC827 P cells [1]; HCC827 P, ratio 1:1, concurrent, 3 days, at effective concentration
  combination index (CI), Reno647 with Camptothecin: below 1
HCC827 P cells [1]; HCC827 P, ratio 1:50, concurrent, 6 days, at effective concentrations
  combination index (CI), Reno647 with Carboplatin: below 1
HCC827 P cells [1]; [3]
  combination index (CI), Reno647 first followed by Taxol: > 1
  combination index (CI), Taxol first followed by Reno647: < 1
HCC827 P cells [1]; HCC827P, ratio 200:1, 6 days
  combination index (CI), Reno647 and Taxol concurrently: < 1
HCC827 TR cells; HCC827 TR, ratio 1:1, concurrent, 3 days, at effective concentration
  combination index (CI), Reno647 with Camptothecin: below 1
HCC827 TR cells; HCC827 TR, ratio 1:50, concurrent, 6 days, at effective concentrations
  combination index (CI), Reno647 with Carboplatin: below 1
HCC827 TR cells; [4]
  combination index (CI), Reno647 first followed by Taxol: > 1
  combination index (CI), Taxol first followed by Reno647: < 1
HCC827 TR cells; HCC827TR, ratio 200:1, 6 days
  combination index (CI), Reno647 and Taxol concurrently: < 1
HCC827 P cells [2]
  Phospho-Akt level: significantly reduced
  level of pEGFRTyr845: significantly decreased
  level of pEGFRTyr1068: significantly decreased
  level of pERK1/2 (Ras/Raf/MEK pathway): significant decrease
  p27 level: induction
  pp-70-6S activity (p70-S6 activation): significant decreases
  total MEK1/2 protein level: no changes
HCC827-P; q-RT-PCR
  p21 expression: significant induction
HCC827-P; qRT-PCR
  Caspase 3 expression: moderate increase
  Caspase 9 expression: significant and concentration-dependent induction
